From PubChem BioAssay AID1919001 (Molecular Pharmacology Branch, DTP, NCI, 2023)

Tested on: 699152-130-R-J1-PDC complex spheroid growth
Experiment: Anticancer human tumor 699152-130-R-J1-PDC patient-derived pancreatic carcinoma cell line growth inhibition [AhR]
Details: for IC50: curve of first compound; for viability, T/C: stronger effect = lower value
Outline: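 Complex tumor spheroids co-cultured with HUVEC and human MSC stroma; AhR antagonists tested in combination with standard-of-care and investigational agents. Top concentration at or near clinical Cmax (else 10 microM), half-log dilutions; growth expressed as percent test/control.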
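Also: compound exposure lasted 7 days after spheroids had grown for 3 days.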

**Q.** Which results are given for CCN(c1cc(-c2ccc(CN3CCOCC3)cc2)cc(C(=O)NCc2c(C)cc(C)[nH]c2=O)c1C)C1CCOCC1 + Cc1ccccc1N=Nc1ccc(NC(=O)c2ccnn2C)c(C)c1?
**A.** IC50 (second compound 0.1 µM): > 3 µM; IC50 (second compound 0.316 µM): > 3 µM; IC50 (second compound 1 µM): > 3 µM; IC50 (second compound 3.16 µM): > 3 µM; IC50 (second compound 10 µM): > 3 µM; viability, T/C (second compound 0.1 µM, first compound 0.00949 µM): 111%; viability, T/C (second compound 0.1 µM, first compound 0.03 µM): 113%; viability, T/C (second compound 0.1 µM, first compound 0.0949 µM): 108%; viability, T/C (second compound 0.1 µM, first compound 0.3 µM): 104%; viability, T/C (second compound 0.1 µM, first compound 0.949 µM): 109%; viability, T/C (second compound 0.1 µM, first compound 3 µM): 104%; viability, T/C (second compound 0.316 µM, first compound 0.00949 µM): 91.2%; viability, T/C (second compound 0.316 µM, first compound 0.03 µM): 95.6%; viability, T/C (second compound 0.316 µM, first compound 0.0949 µM): 102%; viability, T/C (second compound 0.316 µM, first compound 0.3 µM): 105%; viability, T/C (second compound 0.316 µM, first compound 0.949 µM): 109%; viability, T/C (second compound 0.316 µM, first compound 3 µM): 114%; viability, T/C (second compound 1 µM, first compound 0.00949 µM): 118%; viability, T/C (second compound 1 µM, first compound 0.03 µM): 105%; viability, T/C (second compound 1 µM, first compound 0.0949 µM): 109%; viability, T/C (second compound 1 µM, first compound 0.3 µM): 109%; viability, T/C (second compound 1 µM, first compound 0.949 µM): 90.8%; viability, T/C (second compound 1 µM, first compound 3 µM): 118%; viability, T/C (second compound 3.16 µM, first compound 0.00949 µM): 97.1%; viability, T/C (second compound 3.16 µM, first compound 0.03 µM): 104%; viability, T/C (second compound 3.16 µM, first compound 0.0949 µM): 108%; viability, T/C (second compound 3.16 µM, first compound 0.3 µM): 98.7%; viability, T/C (second compound 3.16 µM, first compound 0.949 µM): 99.7%; viability, T/C (second compound 3.16 µM, first compound 3 µM): 101%; viability, T/C (second compound 10 µM, first compound 0.00949 µM): 113%; viability, T/C (second compound 10 µM, first compound 0.03 µM): 113%; viability, T/C (second compound 10 µM, first compound 0.0949 µM): 118%; viability, T/C (second compound 10 µM, first compound 0.3 µM): 124%; viability, T/C (second compound 10 µM, first compound 0.949 µM): 127%; viability, T/C (second compound 10 µM, first compound 3 µM): 113%
